Test results reported in patent US20080063610A1, “Use of Beta-Homocyclocitral as an Agent Against Bad Breath” (SYMRISE GMBH & CO. KG, priority 2004, published 2008).
In brackets after ≈: the same amount, converted by molar mass. Values belong to the molecule of their own block, whether it stands above or below them.

Key:
Assay type in all cases: cell-based
[1] = system: total number of bacteria in the samples of saliva; assay: Further test: total number of bacteria in samples of saliva; conditions: concentration of 1000 ppm
Pseudomonas aruginosa = assay: Further tests at 1000 ppm; conditions: concentration of 1000 ppm
Fusobacterium nucleatum = assay: Minimum inhibiting concentration, serial-dilution test
Experimental: (§1) Determination of the Minimum Inhibiting Concentration 5 The minimum inhibiting concentration (MIC) of beta-homocyclocitral was determined in a serial-dilution test against various bacteria.

Pseudomonas aeruginosa = assay: as above
Experimental: as §1

Staphylococcus aureus = assay: as above
Experimental: as §1

Prevotella intermedia = assay: as above
Experimental: as §1

Escherichia coli [2] = assay: as above
Experimental: as §1

Porphyromonas gingivalis = assay: as above
Experimental: as §1

Veilonella parvula = assay: as above
Experimental: as §1

Streptococcus mutans = assay: as above
Experimental: as §1

Escherichia coli [3] = assay: Further tests at 1000 ppm; conditions: concentration of 1000 ppm
fresh morning saliva = assay: In-vitro test to reduce bad breath (liquid medium inoculated with fresh morning saliva, sniffed by a panel)
Experimental: In-Vitro Test to Reduce Bad Breath
The test is based on the work of Goldberg and Rosenberg (Production of Oral Malodor in an in vitro System, S. Goldberg and M. Rosenberg, pp.143 -150, in: Bad Breath—A multidisciplinary Approach, Eds: D. van Steenberghe, M. Rosenberg, Leuven University Press, 1996) and has been adapted to improve reproducibility.
A sterile liquid medium inoculated with fresh morning saliva is incubated for a few days at 37° C. and then sniffed by a panel of testers.
An intensive odour characteristic of bad breath has formed. Uninoculated controls have only a faint odour of the medium.
As a control for the tests, Triclosan® (5-chloro-2-(2,4-dichlorophenoxy)phenol) was added to inoculated samples in a concentration of 0.05%.

[4] = 0.05% added to inoculated samples at the start of the test, 37° C., a few days

MIC (Pseudomonas aeruginosa): > 1000 µg/mL
MIC (Staphylococcus aureus): 500 µg/mL (≈ 3010 µM)
MIC (Prevotella intermedia; bacteriostatic): 125 µg/mL (≈ 752 µM)
MIC (Escherichia coli [2]): > 1000 µg/mL
MIC (Porphyromonas gingivalis): 125 µg/mL (≈ 752 µM)
Compound: CC1=C(CC=O)C(C)(C)CCC1 [beta-homocyclocitral, 2,6,6-trimethyl-1-cyclohexene-1-acetaldehyde]
reduction of the total number of bacteria in samples of saliva [1]: no significant reduction
reduction with regard to Pseudomonas aruginosa (Pseudomonas aruginosa): no significant reduction
Type (Fusobacterium nucleatum): bactericidal action
MIC (Fusobacterium nucleatum; bactericidal): 250 µg/mL (≈ 1500 µM)
Type (Pseudomonas aeruginosa): No action up to 1000 ppm
MIC (Prevotella intermedia; bactericidal): 250 µg/mL (≈ 1500 µM)
Type (Escherichia coli [2]): No action up to 1000 ppm
Type (Veilonella parvula): bactericidal action
MIC (Veilonella parvula; bactericidal): 500 µg/mL (≈ 3010 µM)
Type (Streptococcus mutans): bactericidal action
MIC (Streptococcus mutans; bactericidal): 500 µg/mL (≈ 3010 µM)
reduction with regard to Escherichia coli (Escherichia coli [3]): no significant reduction
odour after the incubation period (fresh morning saliva; 0.01% added to inoculated samples): a changed characteristic odour or a mixed odour was discernible in some cases
odour after the incubation period (fresh morning saliva; 0.025% added to inoculated samples): no odour
odour after the incubation period (fresh morning saliva; [4]): a slight characteristic odour is discernible
odour at sensory assessment (fresh morning saliva; 0.05% added to the inoculated medium just one hour before the sensory assessment): unpleasant mixed odour of bad breath and a faint beta-homocyclocitral note
minimum effective concentration (fresh morning saliva; no odour after the incubation period): 0.025%

Compound: Oc1cc(Cl)ccc1Oc1ccc(Cl)cc1Cl [Triclosan®, 5-chloro-2-(2,4-dichlorophenoxy)phenol, reference compound]
odour after the incubation period (fresh morning saliva; [4]): same faint odour of medium as the uninoculated samples
